Patent US20100292255A1, “Therapeutic Compounds and Their Use in Treating Diseases and Disorders” (Myriad Pharmaceuticals, Inc., priority 2007, published 2010)

Biological target: T1, purified human Hsp90
T1 construct: purified human Hsp90 (Stressgen, SPP-770)
Assay: Hsp90 binding assay: displacement of BODIPY-labeled geldanamycin measured by fluorescence polarization
Conditions: BODIPY-GM 10 nM, Hsp90 30 nM, overnight at room temperature; for IC50: read-out: GM displacement from purified Hsp90 measured by FP IC 50; for GM displacement from purified Hsp90 measured by FP Inhibition by 5 μM compd. (%): 5 μM compound
Procedure, shortened: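 Fluorescence polarization measured displacement of BODIPY-geldanamycin (10 nM) from purified human Hsp90 (30 nM). The buffer was HEPES-KOH pH 7.3 with molybdate, NP-40, gamma globulin and DTT, 2% DMSO, overnight at room temperature, ex/em 485/530 nm. % inhibition was calculated against DMSO controls, and points confounded by compound fluorescence were excluded.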

Row | SMILES | IC50 | GM displacement from purified Hsp90 measured by FP Inhibition by 5 μM compd. (%)
1 | COCCC(=O)N1CCC(CCn2c(Sc3cc4c(cc3C#N)OCO4)nc3c(N)ncnc32)CC1 [compound 41, 6-[(6-Amino-9-{2-[1-(3-methoxypropanoyl)piperidin-4-yl]ethyl}-9H-purin-8-yl)thio]-1,3-benzodioxole-5-carbonitrile] | 480 nM | –
2 | COCCOCC(=O)N1CCC(CCn2c(Sc3cc4c(cc3C#N)OCO4)nc3c(N)ncnc32)CC1 [compound 42, 6-{[6-Amino-9-(2-{1-[(2-methoxyethoxy)acetyl]piperidin-4-yl}ethyl)-9H-purin-8-yl]thio}-1,3-benzodioxole-5-carbonitrile] | 500 nM | –
3 | CO[C@@H](C)C(=O)N1CCC(CCn2c(Sc3cc4c(cc3C#N)OCCO4)nc3c(N)ncnc32)CC1 [compound 43, 7-{[6-Amino-9-(2-{1-[(2S)-2-methoxypropanoyl]piperidin-4-yl}ethyl)-9H-purin-8-yl]thio}-2,3-dihydro-1,4-benzodioxine-6-carbonitrile] | 320 nM | –
4 | CO[C@H](C)C(=O)N1CCC(CCn2c(Sc3cc4c(cc3C#N)OCCO4)nc3c(N)ncnc32)CC1 [compound 44, 7-{[6-Amino-9-(2-{1-[(2R)-2-methoxypropanoyl]piperidin-4-yl}ethyl)-9H-purin-8-yl]thio}-2,3-dihydro-1,4-benzodioxine-6-carbonitrile] | 300 nM | –
5 | COCC(=O)N1CCC(CCn2c(Sc3cc4c(cc3C#N)OCCO4)nc3c(N)ncnc32)CC1 [compound 45, 7-[(6-Amino-9-{2-[1-(methoxyacetyl)piperidin-4-yl]ethyl}-9H-purin-8-yl)thio]-2,3-dihydro-1,4-benzodioxine-6-carbonitrile] | 220 nM | –
6 | CS(=O)(=O)N1CCCCC1CCn1c(Sc2cc3c(cc2C#N)OCO3)nc2c(N)ncnc21 (centres unmarked) [compound 46, 6-[(6-Amino-9-{2-[1-(methylsulfonyl)piperidin-2-yl]ethyl}-9H-purin-8-yl)thio]-1,3-benzodioxole-5-carbonitrile] | 700 nM | –
7 | CS(=O)(=O)N1CCCC(CCn2c(Sc3cc4c(cc3C#N)OCO4)nc3c(N)ncnc32)C1 (centres unmarked) [compound 47, 6-[(6-Amino-9 {2-[1-(methylsulfonyl)piperidin-3-yl]ethyl}-9H-purin-8-yl)thio]-1,3-benzodioxole-5-carbonitrile] | 90 nM | –
8 | CS(=O)(=O)N1CCCC(CCn2cnc(N)c3nc(Sc4cc5c(cc4C#N)OCO5)nc2-3)C1 (centres unmarked) [compound 48, 6-[(6-Amino-3-{2-[1-(methylsulfonyl)piperidin-3-yl]ethyl}-3H-purin-8-yl)thio]-1,3-benzodioxole-5-carbonitrile] | – | 77.0%
9 | CS(=O)(=O)N1CCC(CCn2c(Sc3cc4c(cc3C#N)OCO4)nc3c(N)ncnc32)CC1 [compound 49, 6-[(6-Amino-9-{2-[1-(methylsulfonyl)piperidin-4-yl]ethyl}-9H-purin-8-yl)thio]-1,3-benzodioxole-5-carbonitrile] | 480 nM | –
10 | CCCN1CCCCC1CCn1c(Sc2cc3c(cc2C#N)OCO3)nc2c(N)ncnc21 (centres unmarked) [compound 50, 6-({6-Amino-9-[2-(1-propylpiperidin-2-yl)ethyl]-9H-purin-8-yl}thio)-1,3-benzodioxole-5-carbonitrile] | 1200 nM | –
11 | CS(=O)(=O)N1CCCCC1CCn1c(Sc2cc3c(cc2C#N)OCCO3)nc2c(N)ncnc21 (centres unmarked) [compound 51, 7-[(6-Amino-9-{2-[1-(methylsulfonyl)piperidin-2-yl]ethyl}-9H-purin-8-yl)thio]-2,3-dihydro-1,4-benzodioxine-6-carbonitrile] | 370 nM | –
12 | CS(=O)(=O)N1CCCC(CCn2c(Sc3cc4c(cc3C#N)OCCO4)nc3c(N)ncnc32)C1 (centres unmarked) [compound 52, 7-[(6-Amino-9-{2-[1-(methylsulfonyl)piperidin-3-yl]ethyl}-9H-purin-8-yl)thio]-2,3-dihydro-1,4-benzodioxine-6-carbonitrile] | 150 nM | –
13 | CS(=O)(=O)N1CCCC(CCn2cnc(N)c3nc(Sc4cc5c(cc4C#N)OCCO5)nc2-3)C1 (centres unmarked) [compound 53, 7-[(6-Amino-3-{2-[1-(methylsulfonyl)piperidin-3-yl]ethyl}-3H-purin-8-yl)thio]-2,3-dihydro-1,4-benzodioxine-6-carbonitrile] | – | 60.0%
14 | CS(=O)(=O)N1CCC(CCn2c(Sc3cc4c(cc3C#N)OCCO4)nc3c(N)ncnc32)CC1 [compound 54, 7-[(6-Amino-9-{2-[1-(methylsulfonyl)piperidin-4-yl]ethyl}-9H-purin-8-yl)thio]-2,3-dihydro-1,4-benzodioxine-6-carbonitrile] | 550 nM | –
15 | CS(=O)(=O)N1CCC(CCn2cnc(N)c3nc(Sc4cc5c(cc4C#N)OCCO5)nc2-3)CC1 [compound 55] | – | 26.0%
16 | N#Cc1cc2c(cc1Sc1nc3c(N)ncnc3n1CCC1CCN(C=O)CC1)OCCO2 [compound 57] | 120 nM | –
17 | Cn1nnnc1N1CCC(CCn2c(Sc3cc4c(cc3C#N)OCCO4)nc3c(N)ncnc32)CC1 [compound 58, 7-[(6-Amino-9-{2-[1-(1-methyl-1H-tetrazol-5-yl)piperidin-4-yl]ethyl}-9H-purin-8-yl)thio]-2,3-dihydro-1,4-benzodioxine-6-carbonitrile] | 180 nM | –
18 | CC(=O)N1CCC(CCn2c(Sc3cc4c(cc3C#N)OCCO4)nc3c(N)ncnc32)CC1 [compound 60, 7-({9-[2-(1-Acetylpiperidin-4-yl)ethyl]-6-amino-9H-purin-8-yl}thio)-2,3-dihydro-1,4-benzodioxine-6-carbonitrile] | 60 nM | –
19 | CCC(=O)N1CCC(CCn2c(Sc3cc4c(cc3C#N)OCO4)nc3c(N)ncnc32)CC1 [compound 61] | 200 nM | –
20 | N#Cc1cc2c(cc1Sc1nc3c(N)ncn(CCn4c(=O)n5n(c4=O)CC=CC5)c-3n1)OCO2 [compound 63] | – | 34.0%
21 | Nc1ncnc2c1nc(Sc1cc3c(cc1[N+](=O)[O-])OCO3)n2CCC1CCN(C=O)CC1 [compound 64, 4-(2-{6-Amino-8-[(6-nitro-1,3-benzodioxol-5-yl)thio]-9H-purin-9-yl}ethyl)piperidine-1-carbaldehyde] | 1500 nM | –
22 | Nc1ncn(CCC2CCN(C=O)CC2)c2nc(Sc3cc4c(cc3[N+](=O)[O-])OCO4)nc1-2 [compound 65, 4-(2-{6-Amino-8-[(6-nitro-1,3-benzodioxol-5-yl)thio]-3H-purin-3-yl}ethyl)piperidine-1-carbaldehyde] | – | 25.0%
23 | Nc1ncnc2c1nc(Sc1cc3c(cc1[N+](=O)[O-])OCCO3)n2CCC1CCN(C=O)CC1 [compound 66, 4-(2-{6-Amino-8-[(7-nitro-2,3-dihydro-1,4-benzodioxin-6-yl)thio]-9H-purin-9-yl}ethyl)piperidine-1-carbaldehyde] | 73 nM | –
24 | CC(=O)N1CCC(CCn2c(Sc3cc4c(cc3[N+](=O)[O-])OCCO4)nc3c(N)ncnc32)CC1 [compound 68, 9-[2-(1-Acetylpiperidin-4-yl)ethyl]-8-[(7-nitro-2,3-dihydro-1,4-benzodioxin-6-yl)thio]-9H-purin-6-amine] | 50 nM | –
25 | CC(=O)N1CCC(CCn2cnc(N)c3nc(Sc4cc5c(cc4[N+](=O)[O-])OCCO5)nc2-3)CC1 [compound 69, 3-[2-(1-Acetylpiperidin-4-yl)ethyl]-8-[(7-nitro-2,3-dihydro-1,4-benzodioxin-6-yl)thio]-3H-purin-6-amine] | – | 46.0%
26 | CC(=O)N1CCC(CCn2c(Sc3cc4c(cc3[N+](=O)[O-])OCO4)nc3c(N)ncnc32)CC1 [compound 70] | 455 nM | –
